# In patent US20190105337A1, “METHODS OF TREATING BACTERIAL INFECTIONS” (priority 2015, published 2019):
# Values joined by “and” are separate entries in the source; they are usually repeats but may differ in a detail not shown here. Equal entries are not always repeated. Where two headings read alike, the source gives them in different places.
# How the values were obtained:
# [1] = Example 1: pharmacokinetics of Compound I, single (SD) and multiple (MD, q8h 7 days) ascending doses, 3-hour IV infusion, healthy adult subjects; format: in vivo, human; settings: for half-life / AUC(0-t) / Cmax / Tmax / AUC(0-inf) / dose excreted: human, intravenous; for half-life / AUC(0-t) / Cmax / Tmax / AUC(0-inf): plasma; for dose excreted: urine
# Description: (§1) 56 healthy subjects were enrolled into one of 7 cohorts of 8 subjects each in the single ascending dose phase (250 mg, 500 mg, 750 mg, 1000 mg, 1250 mg, 1500 mg and 2000 mg). Thirty-two additional subjects were then enrolled into one of 4 cohorts in the multiple-dose phase (250 mg, 1000 mg, 1500 mg, and 2000 mg, given q8 h for 7 days). […] All infusions were administered over 3 hours. Plasma and urine samples were obtained after single or multiple doses and assayed for Compound I content using a validated HPLC/MS method.
# [2] = Example 1: safety and tolerability of Compound I in healthy adult subjects; format: in vivo, human
# Description: as §1
# [3] = Example 5: expected Compound I free drug 24 h AUC according to dosage regimen, by individual subject (Table B); design: species or system human; settings: for Expected Compound I free drug 24 h AUC: individual subjects
# Text: Table B provides a summary of the analysis of different Compound I dosing regimens by individual subjects enrolled the study.
# [4] = 2 g q8h, Normal creatinine clearance
structure (smiles),measurement,setting,value
O=C(O)C[C@@H]1CC[C@H](NC(=O)Cc2cccs2)B(O)O1 [Compound I],half-life,"[1]; 1500 mg, 1500 mg multiple dose, read-out: T1/2 (converted)",1.65 h
same,AUC(0-t),"[1]; 1500 mg, 1500 mg single dose",110 µg·h/mL
same,Cmax,"[1]; 1500 mg, 1500 mg single dose",32900 ng/mL
same,Tmax,"[1]; 1500 mg, 1500 mg single dose",3.01 h
same,half-life,"[1]; 1500 mg, 1500 mg single dose, read-out: T1/2 (converted)",1.4 h
same,AUC(0-t),"[1]; 2000 mg, 2000 mg multiple dose",145 µg·h/mL
same,Cmax,"[1]; 2000 mg, 2000 mg multiple dose",40900 ng/mL
same,Tmax,"[1]; 2000 mg, 2000 mg multiple dose",2.25 h
same,half-life,"[1]; 2000 mg, 2000 mg multiple dose, read-out: T1/2 (converted)",1.66 h
same,AUC(0-t),"[1]; 2000 mg, 2000 mg single dose",140 µg·h/mL
same,Cmax,"[1]; 2000 mg, 2000 mg single dose",41600 ng/mL
same,Tmax,"[1]; 2000 mg, 2000 mg single dose",3.02 h
same,half-life,"[1]; 2000 mg, 2000 mg single dose, read-out: T1/2 (converted)",1.51 h
same,half-life,"[1]; observed, single and multiple doses, read-out: terminal half-life",< 2 h
same,AUC(0-inf),[1]; 250 mg single dose,16.6 µg·h/mL
same,AUC(0-inf),[1]; 500 mg single dose,35.6 µg·h/mL
same,AUC(0-inf),[1]; 750 mg single dose,51.8 µg·h/mL
same,AUC(0-inf),[1]; 1000 mg single dose,79.3 µg·h/mL
same,AUC(0-inf),[1]; 1250 mg single dose,100 µg·h/mL
same,AUC(0-inf),[1]; 1500 mg single dose,114 µg·h/mL
same,AUC(0-inf),[1]; 2000 mg single dose,144 µg·h/mL
same,dose excreted,"[1]; 250 mg, 250 mg multiple dose, read-out: Urinary Recovery",79.9%
same,dose excreted,"[1]; 250 mg, 250 mg single dose, read-out: Urinary Recovery",81.3%
same,dose excreted,"[1]; 500 mg, 500 mg single dose, read-out: Urinary Recovery",80.3%
same,dose excreted,"[1]; 750 mg, 750 mg single dose, read-out: Urinary Recovery",86.4%
same,dose excreted,"[1]; 1000 mg, 1000 mg multiple dose, read-out: Urinary Recovery",82.8%
same,dose excreted,"[1]; 1000 mg, 1000 mg single dose, read-out: Urinary Recovery",89.9%
same,dose excreted,"[1]; 1250 mg, 1250 mg single dose, read-out: Urinary Recovery",86.9%
same,dose excreted,"[1]; 1500 mg, 1500 mg multiple dose, read-out: Urinary Recovery",86.8%
same,dose excreted,"[1]; 1500 mg, 1500 mg single dose, read-out: Urinary Recovery",86.6%
same,dose excreted,"[1]; 2000 mg, 2000 mg multiple dose, read-out: Urinary Recovery",91.6%
same,dose excreted,"[1]; 2000 mg, 2000 mg single dose, read-out: Urinary Recovery",105%
same,dose excreted,"[1]; over 48 hours across all dose groups, read-out: Urinary recovery",≥ 80%
same,accumulation with multiple doses,[1]; q8h for 7 days,no evidence of accumulation
same,serious adverse events (SAEs),[2]; 250-2000 mg,no serious adverse events
same,severity of AEs,[2]; 250-2000 mg,all AEs were mild or moderate
same,safety and tolerability,[2]; all doses tested,safe and well tolerated at all doses tested
same,Expected Compound I free drug 24 h AUC,"[3]; 500 mg q12h, 10-19 ml/min group",505.1 µg·h/mL and 427.3 µg·h/mL and 493.6 µg·h/mL and 790.7 µg·h/mL and 830.3 µg·h/mL and 719.6 µg·h/mL
same,Expected Compound I free drug 24 h AUC,"[3]; 500 mg q12h, 30-49 ml/min group",119.3 µg·h/mL and 129.1 µg·h/mL and 115.2 µg·h/mL and 228.1 µg·h/mL and 251.1 µg·h/mL and 310.6 µg·h/mL
same,Expected Compound I free drug 24 h AUC,"[3]; 500 mg q12h, >50 mL/min group",70.0 µg·h/mL and 62.7 µg·h/mL and 69.2 µg·h/mL and 88.4 µg·h/mL and 70.7 µg·h/mL and 68.1 µg·h/mL and 108.4 µg·h/mL and 108.0 µg·h/mL
same,Expected Compound I free drug 24 h AUC,"[3]; 500 mg q24h, 10-19 ml/min group",252.5 µg·h/mL and 213.7 µg·h/mL and 246.8 µg·h/mL and 395.4 µg·h/mL and 415.1 µg·h/mL and 359.8 µg·h/mL
same,Expected Compound I free drug 24 h AUC,"[3]; 500 mg q24h, 30-49 ml/min group",59.6 µg·h/mL and 64.5 µg·h/mL and 57.6 µg·h/mL and 114.0 µg·h/mL and 125.5 µg·h/mL and 155.3 µg·h/mL
same,Expected Compound I free drug 24 h AUC,"[3]; 500 mg q24h, >50 mL/min group",35.0 µg·h/mL and 31.4 µg·h/mL and 34.6 µg·h/mL and 44.2 µg·h/mL and 35.4 µg·h/mL and 34.1 µg·h/mL and 54.2 µg·h/mL and 54.0 µg·h/mL
same,Expected Compound I free drug 24 h AUC,"[3]; 1 g q8h, 10-19 ml/min group",1515.2 µg·h/mL and 1281.9 µg·h/mL and 1480.9 µg·h/mL and 2372.2 µg·h/mL and 2490.8 µg·h/mL and 2158.8 µg·h/mL
same,Expected Compound I free drug 24 h AUC,"[3]; 1 g q8h, 30-49 ml/min group",357.8 µg·h/mL and 387.2 µg·h/mL and 345.5 µg·h/mL and 684.2 µg·h/mL and 753.3 µg·h/mL and 931.8 µg·h/mL
same,Expected Compound I free drug 24 h AUC,"[3]; 1 g q8h, >50 mL/min group",210.0 µg·h/mL and 188.2 µg·h/mL and 207.5 µg·h/mL and 265.2 µg·h/mL and 212.1 µg·h/mL and 204.3 µg·h/mL and 325.3 µg·h/mL and 324.0 µg·h/mL
same,Expected Compound I free drug 24 h AUC,"[3]; 1 g q24h, 10-19 ml/min group",505.1 µg·h/mL and 427.3 µg·h/mL and 493.6 µg·h/mL and 790.7 µg·h/mL and 830.3 µg·h/mL and 719.6 µg·h/mL
same,Expected Compound I free drug 24 h AUC,"[3]; 1 g q24h, 30-49 ml/min group",119.3 µg·h/mL and 129.1 µg·h/mL and 115.2 µg·h/mL and 228.1 µg·h/mL and 251.1 µg·h/mL and 310.6 µg·h/mL
same,Expected Compound I free drug 24 h AUC,"[3]; 1 g q24h, >50 mL/min group",70.0 µg·h/mL and 62.7 µg·h/mL and 69.2 µg·h/mL and 88.4 µg·h/mL and 70.7 µg·h/mL and 68.1 µg·h/mL and 108.4 µg·h/mL and 108.0 µg·h/mL
same,"Expected Compound I free drug 24 h AUC, Mean",[3]; [4],358 µg·h/mL
same,"Expected Compound I free drug 24 h AUC, Range",[3]; [4],284 to 470 µg·h/mL
same,Expected Compound I free drug 24 h AUC,"[3]; 2 g q8h, 10-19 ml/min group",3030.3 µg·h/mL and 2563.8 µg·h/mL and 2961.8 µg·h/mL and 4744.3 µg·h/mL and 4981.6 µg·h/mL and 4317.6 µg·h/mL
same,Expected Compound I free drug 24 h AUC,"[3]; 2 g q8h, 30-49 ml/min group",715.7 µg·h/mL and 774.5 µg·h/mL and 690.9 µg·h/mL and 1368.4 µg·h/mL and 1506.5 µg·h/mL and 1863.5 µg·h/mL
same,Expected Compound I free drug 24 h AUC,"[3]; 2 g q8h, >50 mL/min group",420.0 µg·h/mL and 376.3 µg·h/mL and 415.0 µg·h/mL and 530.5 µg·h/mL and 424.2 µg·h/mL and 408.7 µg·h/mL and 650.6 µg·h/mL and 648.1 µg·h/mL
